{
  "source": "ChEMBL document CHEMBL5316290",
  "about": "“Targeted Protein Degradation Induced by HEMTACs Based on HSP90” (J Med Chem, 2023)",
  "key": {"[1]": {"target": "T1, HSP90/Cyclin-dependent kinase 4 (Mus musculus) (UniProt P30285+P07901+P11499)", "assay": "HEMTAC activity at HSP90/CDK4 in mouse B16-F10 cells assessed as induction of CDK4 degradation at 0.5 uM measured after 12 hrs by Western blot analysis", "assay_type": "cell-based"}, "B16-F10 [2]": {"test_system": "B16-F10", "assay": "Induction of apoptosis in mouse B16-F10 cells assessed as dead cells at 250 nM incubated for 48 hrs by Annexin V-FITC/PI staining based flow cytometry analysis (reference value: 1.75%)", "assay_type": "functional"}, "[3]": {"target": "T2, HSP90/Cyclin-dependent kinase 6 (Mus musculus) (UniProt P07901+Q64261+P11499)", "assay": "HEMTAC activity at HSP90/CDK6 in mouse B16-F10 cells assessed as induction of […] degradation at 0.5 uM pretreated with proteasome inhibitor, MG132 for 2 hrs followed by compound addition and measured after 24 hrs by Western blot analysis", "assay_type": "cell-based"}, "B16-F10 [4]": {"test_system": "B16-F10", "assay": "Anticancer activity against mouse B16-F10 cells implanted in C57BL/6J mouse assessed as reduction in tumor growth at 20 to 40 mg/kg, ip administered once daily for 2 weeks and measured every 2 days by vernier caliper method", "assay_type": "functional, organism-based", "details": "dose 20-40 mg/kg"}, "[5]": {"target": "T2, HSP90/Cyclin-dependent kinase 6 (Mus musculus)", "assay": "HEMTAC activity at HSP90/CDK6 in mouse B16-F10 cells assessed as induction of […] degradation by measuring maximal degradation incubated for 24 hrs by Western blot analysis relative to control", "assay_type": "cell-based"}, "[6]": {"assay": "Toxicity in C57BL/6J mouse implanted with mouse B16-F10 cells at 20 to 40 mg/kg, ip administered once daily for 2 weeks and measured every 2 days", "assay_type": "organism-based", "details": "in vivo, 336 h, dose 20-40 mg/kg"}, "[7]": {"target": "T1, HSP90/Cyclin-dependent kinase 4 (Mus musculus)", "assay": "HEMTAC activity at HSP90/CDK4 in mouse B16-F10 cells assessed as induction of CDK4 degradation at 0.5 uM pretreated with proteasome inhibitor, MG132 for 2 hrs followed by compound addition and measured after 24 hrs by Western blot analysis", "assay_type": "cell-based"}, "B16-F10 [8]": {"test_system": "B16-F10", "assay": "Induction of apoptosis in mouse B16-F10 cells assessed as late apoptotic cells at 250 nM incubated for 48 hrs by Annexin V-FITC/PI staining based flow cytometry analysis (reference value: 1.97%)", "assay_type": "functional"}, "B16-F10 [9]": {"test_system": "B16-F10", "assay": "Binding affinity to HSP90/CDK6 in mouse B16-F10 assessed as ternary complex formation at 5 uM incubated for 6 hrs by co-immunoprecipitation assay", "assay_type": "cell-based"}, "[10]": {"target": "T2, HSP90/Cyclin-dependent kinase 6 (Mus musculus)", "assay": "HEMTAC activity at HSP90/CDK6 in mouse B16-F10 cells assessed as induction of […] degradation at 0.5 uM measured after 12 hrs by Western blot analysis", "assay_type": "cell-based"}, "[11]": {"target": "T2, HSP90/Cyclin-dependent kinase 6 (Mus musculus)", "assay": "HEMTAC activity at HSP90/CDK6 in mouse B16-F10 cells assessed as induction of CDK6 degradation at 0.1 uM incubated for 24 hrs in presence of palbociclib by Western blot analysis", "assay_type": "cell-based"}, "B16-F10 [12]": {"test_system": "B16-F10", "assay": "Induction of cell cycle arrest in mouse B16-F10 cells assessed as accumulation of cells at S phase at 250 nM incubated for 24 hrs by RNase/PI staining based flow cytometry analysis (reference value: 12.45%)", "assay_type": "functional"}, "[13]": {"target": "T2, HSP90/Cyclin-dependent kinase 6 (Mus musculus)", "assay": "HEMTAC activity at HSP90/CDK6 in mouse B16-F10 cells assessed as reduction in CDK6 protein level at 0.5 uM incubated for 24 hrs by global proteomics analysis", "assay_type": "cell-based"}, "HFF-1": {"test_system": "HFF-1", "assay": "Cytotoxicity against human HFF-1 cells assessed as reduction of cell viability incubated for 72 hrs by CCK-8 assay", "assay_type": "toxicity, cell-based", "details": "hff-1, 72 h"}, "[14]": {"assay": "Acute toxicity in zebra fish embryos incubated for 72 hrs", "parameters": "species or system Danio rerio", "details": "zebrafish"}, "A549": {"test_system": "A549", "assay": "Cytotoxicity against human A549 cells assessed as inhibition of cell growth incubated for 72 hrs by CCK-8 assay", "assay_type": "functional, cell-based", "details": "A549, 72 h"}, "B16-F10 [15]": {"test_system": "B16-F10", "assay": "Induction of apoptosis in mouse B16-F10 cells assessed as dead cells at 125 nM incubated for 48 hrs by Annexin V-FITC/PI staining based flow cytometry analysis (reference value: 1.75%)", "assay_type": "functional"}, "B16-F10 [16]": {"test_system": "B16-F10", "assay": "Anticancer activity against mouse B16-F10 cells implanted in C57BL/6J mouse assessed as increase in necrosis at 20 mg/kg, ip administered once daily for 2 weeks and measured every 2 days by H and E staining based analysis", "assay_type": "functional, organism-based"}, "B16-F10 [17]": {"test_system": "B16-F10", "assay": "Induction of cell cycle arrest in mouse B16-F10 cells assessed as accumulation of cells at G1 phase at 250 nM incubated for 24 hrs by RNase/PI staining based flow cytometry analysis (reference value: 68.89%)", "assay_type": "functional"}, "B16-F10 [18]": {"test_system": "B16-F10", "assay": "Induction of apoptosis in mouse B16-F10 cells assessed as late apoptotic cells at 125 nM incubated for 48 hrs by Annexin V-FITC/PI staining based flow cytometry analysis (reference value: 1.97%)", "assay_type": "functional"}, "B16-F10 [19]": {"test_system": "B16-F10", "assay": "Anticancer activity against mouse B16-F10 cells xenografted in zebra fish embryos assessed as inhibition of cell growth at 1 uM measured at 6 days post fertilization", "assay_type": "functional, cell-based", "details": "time 6.0 day"}, "B16-F10 [20]": {"test_system": "B16-F10", "assay": "Induction of apoptosis in mouse B16-F10 cells assessed as early apoptotic cells at 125 nM incubated for 48 hrs by Annexin V-FITC/PI staining based flow cytometry analysis (reference value: 3.42%)", "assay_type": "functional"}, "Lung": {"test_system": "Lung", "assay": "Downregulation of CDK4/6 protein level in lung of C57BL/6J mouse implanted with mouse B16-F10 cells at 20 mg/kg, ip administered once daily for 2 weeks and measured every 2 days by immunohistochemical analysis", "assay_type": "functional, organism-based"}, "B16-F10 [21]": {"test_system": "B16-F10", "assay": "Induction of cell cycle arrest in mouse B16-F10 cells assessed as accumulation of cells at G2 phase at 250 nM incubated for 24 hrs by RNase/PI staining based flow cytometry analysis (reference value: 16.13%)", "assay_type": "functional"}, "[22]": {"assay": "Toxicity in C57BL/6J mouse implanted with mouse B16-F10 cells assessed as morphological changes in lung at 20 mg/kg, ip administered once daily for 2 weeks and measured every 2 days by H and E staining based analysis", "assay_type": "organism-based", "details": "in vivo, 336 h"}, "[23]": {"target": "T1, HSP90/Cyclin-dependent kinase 4 (Mus musculus)", "assay": "HEMTAC activity at HSP90/CDK4 in mouse B16-F10 cells assessed as induction of CDK4 degradation at 0.1 uM incubated for 24 hrs in presence of palbociclib by Western blot analysis", "assay_type": "cell-based"}, "B16-F10 [24]": {"test_system": "B16-F10", "assay": "Inhibition of cell migration in mouse B16-F10 cells at 0.25 to 1 uM by wound healing assay", "assay_type": "functional, cell-based", "details": "dose 0.25-1 µM"}, "B16-F10 [25]": {"test_system": "B16-F10", "assay": "Induction of apoptosis in mouse B16-F10 cells assessed as early apoptotic cells at 250 nM incubated for 48 hrs by Annexin V-FITC/PI staining based flow cytometry analysis (reference value: 3.42%)", "assay_type": "functional"}, "[26]": {"target": "T1, HSP90/Cyclin-dependent kinase 4 (Mus musculus)", "assay": "HEMTAC activity at HSP90/CDK4 in mouse B16-F10 cells assessed as reduction in CDK4 protein level at 0.5 uM incubated for 24 hrs by global proteomics analysis", "assay_type": "cell-based"}, "B16-F10 [27]": {"test_system": "B16-F10", "assay": "Induction of apoptosis in mouse B16-F10 cells assessed as live cells at 250 nM incubated for 48 hrs by Annexin V-FITC/PI staining based flow cytometry analysis (reference value: 92.85 %)", "assay_type": "functional"}, "B16-F10 [28]": {"test_system": "B16-F10", "assay": "Cytotoxicity against mouse B16-F10 cells assessed as inhibition of cell growth incubated for 72 hrs by CCK-8 assay", "assay_type": "functional, cell-based", "details": "B16-F10, 72 h"}, "[29]": {"target": "Heat shock protein HSP 90-alpha (Homo sapiens, UniProt P07900)", "assay": "Binding affinity to CM5 sensor chip immobilized human HSP90alpha assessed as dissociation constant by SPR analysis"}},
  "note": "Calls of active or inactive are those of the source. The rule behind the calls is not given here.",
  "data": [
    {"smiles": "COc1c(C)cnc(Cn2cc(C#CCCn3cc(CNC(=O)CN4CCN(c5ccc(Nc6ncc7c(C)c(C(C)=O)c(=O)n(C8CCCC8)c7n6)nc5)CC4)nn3)c3c(Cl)nc(N)nc32)c1C", "values": [
      {"measurement": "Activity", "setting": "[1]", "value": "Active"},
      {"measurement": "Activity", "setting": "B16-F10 [2]", "value": 2.55, "unit": "%"},
      {"measurement": "Activity", "setting": "[3]", "value": "inactive"},
      {"measurement": "Activity", "setting": "B16-F10 [4]", "value": "Active"},
      {"measurement": "Emax", "setting": "[5]", "value": 92, "unit": "%"},
      {"measurement": "Activity", "setting": "[6]", "value": "Non-Toxic"},
      {"measurement": "Activity", "setting": "[7]", "value": "inactive"},
      {"measurement": "Activity", "setting": "B16-F10 [8]", "value": 15.1, "unit": "%"},
      {"measurement": "Activity", "setting": "B16-F10 [9]", "value": "Active"},
      {"measurement": "Activity", "setting": "[10]", "value": "Active"},
      {"measurement": "Activity", "setting": "[11]", "value": "inactive"},
      {"measurement": "Activity", "setting": "B16-F10 [12]", "value": 2.08, "unit": "%"},
      {"measurement": "Activity", "setting": "[13]", "value": "Active"},
      {"measurement": "Activity", "setting": "HFF-1", "value": "Non-Toxic"},
      {"measurement": "LC50 at 72 h", "setting": "[14]", "value": "> 100000", "unit": "nM"},
      {"measurement": "IC50", "setting": "A549", "value": 860, "unit": "nM"},
      {"measurement": "Activity", "setting": "B16-F10 [15]", "value": 1.77, "unit": "%"},
      {"measurement": "Activity", "setting": "B16-F10 [16]", "value": "Active"},
      {"measurement": "Activity", "setting": "B16-F10 [17]", "value": 81.26, "unit": "%"},
      {"measurement": "Activity", "setting": "B16-F10 [18]", "value": 11.55, "unit": "%"},
      {"measurement": "inhibition", "setting": "B16-F10 [19]", "value": "Active"},
      {"measurement": "Activity", "setting": "B16-F10 [20]", "value": 14.42, "unit": "%"},
      {"measurement": "Activity", "setting": "Lung", "value": "inactive"},
      {"measurement": "Activity", "setting": "B16-F10 [21]", "value": 16.12, "unit": "%"},
      {"measurement": "Activity", "setting": "[22]", "value": "Non-Toxic"},
      {"measurement": "Activity", "setting": "[23]", "value": "inactive"},
      {"measurement": "inhibition", "setting": "B16-F10 [24]", "value": "Active"},
      {"measurement": "Activity", "setting": "B16-F10 [25]", "value": 20.11, "unit": "%"},
      {"measurement": "Activity", "setting": "[26]", "value": "Active"},
      {"measurement": "Activity", "setting": "B16-F10 [27]", "value": 62.24, "unit": "%"},
      {"measurement": "IC50", "setting": "B16-F10 [28]", "value": 112, "unit": "nM"},
      {"measurement": "Kd", "setting": "[29]", "value": 357, "unit": "nM"}
    ]}
  ]
}
